Measurements as given in US9862730B2, “Imidazothiadiazole derivatives as protease activated receptor 4 (PAR4) inhibitors for treating platelet aggregation” (BRISTOL-MYERS SQUIBB COMPANY, priority 2012, dated 2018).
Read-outs that look alike come from different tables or passages of the source.

Tests used:
[1] = test system: human washed platelets; assay: Alpha-thrombin induced platelet aggregation assay; format: cell-based; details: for IC50: Homo sapiens, Platelet, 0.1 h, AUC at 6 min, read-out: IC50 for the inhibition of platelet aggregation
Description: Example D is an alpha-thrombin-induced platelet aggregation assay. Alpha-thrombin activates both PAR1 and PAR4.
Human blood was collected in ACD (85 mM tri-sodium citrate, 78 mM citric acid, 110 mM D-glucose, pH 4.4) at a ratio of 1.4 ml per 10 ml blood. PRP was isolated by centrifugation at 170 g for 14 minutes and platelets were further pelleted by centrifugation at 1300 g for 6 minutes. Platelets were washed once with 10 ml ACD containing 1 mg/ml bovine serum albumin. Platelets were resuspended at ˜2.5×10^8/ml in Tyrode's Buffer (137 mM NaCl, 2 mM KCl, 1.0 mM MgCl2, 1 mM CaCl2, 5 mM glucose, 20 mM HEPES pH 7.4).
The ability of PAR4 antagonist to inhibit platelet aggregation induced by alpha-thrombin was tested using human washed platelets. […] Aggregation was initiated by addition of 2.5 or 5 nM alpha-thrombin (Haematologic Technologies, Essex Junction, Vt.) to 240 μl of washed platelets at stirring speed of 1200 rpm. […] IC50 was calculated using vehicle control as 0% inhibition.

[2] = ACS patients, phase III; cited from earlier work
[3] = target: T1, PAR4 (Homo sapiens (Human), UniProt Q96RI0); assay: FLIPR assay in PAR4-expressing HEK293 cells (PAR4 antagonist activity, calcium mobilization); format: cell-based; details: FLIPR assay as described in Example A
How it was run: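 HEK293 cells stably expressing human PAR4 (also endogenous PAR1) in HBSS/10 mM HEPES, 0.67% DMSO final. Compound added and read for agonist activity, then 30 min room temperature before PAR4 agonist peptide; intracellular calcium mobilization monitored by FDSS/FLIPR.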

[4] = target: T1, PAR4; assay: Gamma thrombin induced platelet aggregation assay in PRP (PRP assay); format: cell-based
Text: The compounds of the current invention can be tested in vitro for their ability to inhibit platelet aggregation induced by gamma-thrombin as shown in Example C. Gamma-thrombin, a proteolytic product of alpha-thrombin which no longer interacts with PAR1, selectively cleaves and activates PAR4 (Soslau, G. et al., “Unique pathway of thrombin-induced platelet aggregation mediated by glycoprotein Ib”, J. Biol. Chem., 276:21173-21183 (2001)). Platelet aggregation can be monitored in a 96-well microplate aggregation assay format or using standard platelet aggregometer. The aggregation assay can also be employed to test the selectivity of the compound for inhibiting platelet aggregation induced by PAR4 agonist peptides, PAR1 agonist peptide, ADP, or thromboxane analogue U46619.
(§1) The platelet rich plasma was isolated by centrifugation at 170 g for 14 minutes.
The ability of the compounds of the current invention to inhibit platelet aggregation induced by gamma-thrombin was tested in a 96-well microplate aggregation assay format. Briefly, PRP or washed platelet suspension (100 μl) was pre-incubated for 5 minutes at room temperature with varying concentrations of compounds. Aggregation was initiated by ˜10-50 nM gamma thrombin (Haematologic Technologies, Essex Junction, Vt.), which was titrated daily to achieve 80% platelet aggregation. Refludan at 1 U/mL (Berlex, Montville, N.J.) was added to the gamma thrombin sample to prevent PAR1 activation induced by residual alpha-thrombin contamination. The plate was then placed into a 37° C. Molecular Devices (Sunnyvale, Calif.) SPECTRAMAX® Plus Plate Reader. […] Data was collected with SOFTMAX® 4.71 software. The plate also included an untreated control sample which served as ODmax, while buffer containing no platelets was the ODmin. Platelet aggregation was determined by subtracting the ODmax from the ODmin for the 100% aggregation value. In experimental samples, the observed transmission was subtracted from the minimum value and then compared to the 100% aggregation value to determine the percentage aggregation. IC50 values are determined using Excel Fit software.
As indicated above, the PRP assay, an in vitro assay, measures the PAR4 antagonist activity of compounds tested as described in Example C.

[5] = test system: platelet aggregation in human PRP; assay: Tissue factor-induced platelet aggregation assay; format: cell-based; details: tissue factor and CaCl2
Text: Example E is a tissue factor-induced platelet aggregation assay. The conditions in this assay mimic the physiological events during thrombus formation. In this assay, platelet aggregation in human PRP was initiated by the addition of tissue factor and CaCl2. Tissue factor, the initiator of the extrinsic coagulation cascade, is highly elevated in human atherosclerotic plaque. Exposure of blood to tissue factor at the atherosclerotic site triggers a robust generation of thrombin and induces the formation of obstructive thrombi.
as §1
The ability of PAR1 or PAR4 antagonist to inhibit platelet aggregation induced by endogenous thrombin was tested in a tissue factor driven aggregation assay. The compounds were pre-incubated with PRP for 2 min (FIGS. 3 and 4). Aggregation is initiated by addition of CaCl2 and recombinant human tissue factor, which results in the generation of thrombin through activation of the coagulation pathway in the plasma. Anticoagulant agents such as corn trypsin inhibitor (Haematologic Technologies, Essex Junction, Vt.) at 50 μg/ml and PEFABLOC® FG (Centerchem, Norwalk, Conn.) are also added to the sample to prevent fibrin clot formation during the time of the study. Platelet aggregation is monitored using standard instrumentation including optical aggregometer or impedance aggregometer.

T1 sequence (Q96RI0 18-385): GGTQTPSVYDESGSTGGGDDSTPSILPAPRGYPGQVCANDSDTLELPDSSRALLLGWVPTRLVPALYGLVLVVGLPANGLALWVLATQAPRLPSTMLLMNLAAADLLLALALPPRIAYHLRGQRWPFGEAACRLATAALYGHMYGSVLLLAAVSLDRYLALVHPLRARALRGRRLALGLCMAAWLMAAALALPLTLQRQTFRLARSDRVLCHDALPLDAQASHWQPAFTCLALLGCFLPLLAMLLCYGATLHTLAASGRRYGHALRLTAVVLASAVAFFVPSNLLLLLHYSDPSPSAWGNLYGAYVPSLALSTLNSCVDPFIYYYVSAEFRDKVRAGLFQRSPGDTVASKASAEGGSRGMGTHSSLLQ

Row | IC50 [3] | IC50 [4] | SMILES | further results
1 |  |  | COc1cc(OCc2ccccc2)c2cc(-c3cn4nc(OC)sc4n3)oc2c1 [Example 203, 6-(4-(Benzyloxy)-6-methoxybenzofuran-2-yl)-2-methoxyimidazo[2,1-b][1,3,4]thiadiazole] | inhibition of alpha-thrombin-induced platelet aggregation (FIG. 2) ([1]; 5 nM alpha-thrombin): dose-dependent inhibition; IC50 ([1]; 5 nM alpha-thrombin, n=3): 6900 ± 300 nM; IC50 ([1]; […] alpha-thrombin, n=4): 1100 ± 900 nM
2 |  |  | CCOC(=O)N[C@@H]1CC[C@@H]2[C@@H](C1)C[C@H]1C(=O)O[C@H](C)[C@H]1[C@H]2/C=C/c1ccc(-c2cccc(F)c2)cn1 [vorapaxar] | cardiovascular events [2]: did not significantly reduce cardiovascular events; risk of major bleeding [2]: significantly increased the risk of major bleeding
3 | 575 nM | > 30000 nM | CCc1nn2cc(-c3nc4cc(C(C)(C)C)ccc4o3)nc2s1 [Example 57] | 
4 | 1660 nM | > 30000 nM | COc1nn2cc(-c3oc4c(OC)c(OC)ccc4c3C)nc2s1 [Example 36] | 
5 | 1.64 nM | 86.2 nM | COc1cc(OCc2cccc(OCc3ccc(F)c(F)c3F)c2)c2cc(-c3cn4nc(OC)sc4n3)oc2c1 [Example 325] | 
6 | 4.81 nM | 73.2 nM | COc1nn2cc(-c3cc4c(F)cc(OCc5cccc(OCc6ccccc6)c5)cc4o3)nc2s1 [Example 428] | 
7 | 0.76 nM | 85.7 nM | COc1cc(OCc2cc(F)cc(OCc3ccccc3)c2)c2cc(-c3cn4nc(OC)sc4n3)oc2c1 [Example 350] | 
8 | 2.14 nM | 66.2 nM | COc1cc(OCc2cccc(OCc3cccnc3)c2)c2cc(-c3cn4nc(OC)sc4n3)oc2c1 [Example 398] | 
9 | 4.56 nM | 566 nM | CCOc1cc(OCc2cccc(OCc3ccccc3)c2)c2cc(-c3cn4nc(OC)sc4n3)oc2c1 [Example 426] | 
10 | 1.65 nM | 33.3 nM | COc1cc(OCc2cccc(OC(=O)c3ccccc3)c2)c2cc(-c3cn4nc(OC)sc4n3)oc2c1 [Example 355] | 
11 | 2.25 nM | 10.5 nM | COc1cc(OCc2cccc(OCc3cccc(OC)c3OC)c2)c2cc(-c3cn4nc(OC)sc4n3)oc2c1 [Example 353] | 
12 | 4.17 nM | 93.3 nM | COc1cc(OCc2cccc(OCc3cccc(C(F)(F)F)c3F)c2)c2cc(-c3cn4nc(OC)sc4n3)oc2c1 [Example 316] | 
13 | 113 nM | > 30000 nM | COc1nn2cc(-c3cc4c(OCc5ccccc5)cc(OCc5ccccc5)cc4o3)nc2s1 [Example 255] | 
14 | 8.68 nM | 9440 nM | COc1cccc2cc(-c3cn4nc(SC)sc4n3)oc12 [Example 14] | 
15 | 7.63 nM | 2500 nM | COc1cc(COc2cccc(COc3cc(OC)cc4oc(-c5cn6nc(OC)sc6n5)cc34)c2)cc(OCc2ccccc2)c1 [Example 373] | 
16 | 1.77 nM | 55 nM | COc1cc(OCc2cccc(OCc3cccc(C)c3)c2)c2cc(-c3cn4nc(OC)sc4n3)oc2c1 [Example 386] | 
17 | 114 nM | > 30000 nM | CSc1nn2cc(-c3cc4c(OCc5ccccc5)cc(OCc5ccccc5)cc4o3)nc2s1 [Example 253] | 
18 | 23 nM | 2960 nM | COc1cc(OCc2ccc(F)cc2)c2cc(-c3cn4nc(SC)sc4n3)oc2c1 [Example 301] | 
19 | 55.6 nM | > 30000 nM | COc1cc(OCc2ccc(F)cc2)c2cc(-c3cn4nc(C(C)(F)F)sc4n3)oc2c1 [Example 304] | 
20 | 195 nM | > 30000 nM | COc1cc(OCc2ccc(F)cc2)c2cc(-c3cn4nc(Br)sc4n3)oc2c1 [Example 302] | 
21 | 35.9 nM | 2500 nM | COc1cc(OCc2cccc(OCc3ccc(C(C)(C)C)cc3)c2)c2cc(-c3cn4nc(OC)sc4n3)oc2c1 [Example 393] | 
22 | 2.26 nM | 3080 nM | CCOc1nn2cc(-c3cc4c(OCc5cccc(OCc6ccccc6)c5)cc(OC)cc4o3)nc2s1 [Example 348] | 
23 | 121 nM | > 30000 nM | COCCOc1cccc2oc(-c3cn4nc(Br)sc4n3)cc12 [Example 252] | 
24 | 15.4 nM | 9160 nM | COc1ccc2nc(-c3cn4nc(OC)sc4n3)oc2c1 [Example 164] | 
25 | 3.93 nM | 75.5 nM | COc1cc(OCc2cccc(OCc3ccnc(Cl)c3)c2)c2cc(-c3cn4nc(OC)sc4n3)oc2c1 [Example 320] | 
26 | 1800 nM | > 30000 nM | COc1nn2cc(-c3cc4ccc(OC)c(OC)c4o3)nc2s1 [Example 10, 6-(6,7-Dimethoxybenzofuran-2-yl)-2-methoxyimidazo[2,1-b][1,3,4]thiadiazole] | 
27 | 3.91 nM | 2330 nM | COc1cc(OC)c2c(C)c(-c3cn4nc(OC)sc4n3)oc2c1 [Example 72] | 
28 | 217 nM | 8760 nM | CSc1nn2cc(-c3cc4cccc(C)c4o3)nc2s1 [Example 22] | 
29 | 2.74 nM | 579 nM | COc1cc(OCc2cccc(OCc3ccccc3)c2)c2cc(-c3cn4nc(C(C)(F)F)sc4n3)oc2c1 [Example 347] | 

Row | SMILES | IC50 [3] | IC50 [4] | further results
30 | COc1cc(OC)c2cc(-c3cn4nc(OC)sc4n3)oc2c1 [Example 73] | 0.99 nM |  | inhibition of tissue factor-induced platelet aggregation (FIGS. 3 and 4) [5]: effective inhibition
